Assay results as given in patent US12077586B2, “Bispecific antibodies for use in the treatment of hematological malignancies” (LAVA THERAPEUTICS N.V., priority 2018, dated 2024).

Assays:
[1] = tested on: CLL patient-derived Vγ9Vδ2-T cells; experiment: Proliferation assay of CLL patient-derived Vγ9Vδ2-T cells; assay type: cell-based, human; details: 1 week
Excerpt: (§1) (A-C) Activation of and cytokine production and degranulation by patient-derived Vγ9Vδ2-T cells. […] (D) Lysis of primary CLL cells by autologous Vγ9Vδ2-T cells. […] Live CLL cells were quantified by flow cytometry using counting beads (n=5). (E) Expansion of patient-derived Vγ9Vδ2-T cells. […] Percentage Vγ9Vδ2-T cells after 1 week (n=8). Data are presented as mean and SD. *P<0.05, **P<0.01, ***P<0.001. (A-D: one-way ANOVA followed by Dunnett's post hoc test compared to medium control; E: paired t-test).
For proliferation assays, PBMCs from CL patients were enriched for T cells by depletion of CD19^+ CLL cells. After attachment of irradiated (30Gy) […] fibroblasts to culture plates, T cell enriched PBMC (≤10% CD19^+) and purified CD19^+ (≥90% CD19^+) PBMC fractions were added in a 2:1 (CD19:CD19^+) ratio.

Vγ9Vδ2-T cells [2] = experiment: Cytokine and degranulation assay, Vγ9Vδ2-T cells cocultured with Jeko-1 cells; assay type: cell-based, human; details: bispecific antibody alone, without target cells
healthy B cells = experiment: Mixed coculture cytotoxicity (Vγ9Vδ2-T cell: B cell: CLL cell 1:1:1), healthy B cells; assay type: cell-based, human; details: 6 hours
Experimental: (§2) (A) Specific lysis of Jeko-1 cells after pretreatment with mevastatin or pamidronate. […] (B) CD1d expression on B cells from healthy donor PBMCs. (C) Specific lysis of healthy B cells and CLL cells after pretreatment with ABP. Healthy B cells (isolated from healthy donor PBMCs, CFSE-labeled) and CLL cells (isolated from CLL PBMCs, CTV-labeled) were mixed in 1:1 ratio and pretreated with 50 μM pamidronate or medium control for 2 hours. […] (D) Specific lysis of Jeko-1 cells after blockade of CD1d or CD277. Jeko-1 cells were incubated with an anti-CD1d antibody (5 μg/mL), anti-CD277 antibody (10 μg/mL), anti-CD1d and anti-CD277 antibodies, or medium control for 10 minutes. […] Specific lysis is calculated by correcting for background cell death in condition without Vγ9Vδ2-T cells. Data represent mean and SD. *P<0.05, **P<0.01, ***P<0.001. (A: two-way ANOVA followed by Dunnett's post hoc test comparing control vs each pretreatment; C: two-way ANOVA followed by Sidak's post hoc test comparing untreated vs ABP pre-treated D: one-way ANOVA followed by Dunnett's post hoc test compared to medium control).
(§3) If indicated, target cells were pretreated with 25 μM mevastatin (M2537, Sigma-Aldrich), 50 μM aminobisphosphonates (pamidronate, #12J08RD, TEVA Pharmachemie, Haarlem, the Netherlands) or medium control for 2 hours.
(§4) Healthy B cells express low levels of CD1d (FIG. 12B). […]

[3] = tested on: CD1d-transfected MM.1s cells; experiment: VHH binding to CD1d-transfected MM.1s cells (flow cytometry); design: species or system human; details: read-out: apparent Kd
[4] = tested on: CD1d-transfected MM.1s cells; experiment: Cytotoxicity assay with Vγ9Vδ2-T cell lines, CD1d-transfected MM.1s; assay type: cell-based, human; details: overnight coculture with Vγ9Vδ2-T cells
Experimental: (§5) (A) Specific lysis of Jeko-1 cell line (n=3). (B) CD1d expression on WT or CD1d-transfected MM.1s cell line (blank histogram: CD1d-stained, grey filled histogram: fluorescence minus one control). (C) Specific lysis of WT or CD1d-transfected MM.1s cell line (n=4). (D) Specific lysis of primary CLL cells with negative, low or high CD1d expression (n=4 per group). Specific lysis is calculated by correcting for background cell death in condition without Vγ9Vδ2-T cells. Data represent mean and SD. *P<0.05, **P<0.01, ****P<0.0001. (A: one-way ANOVA followed by Dunnett's post hoc test compared to untreated condition, C: two-way ANOVA followed by Sidak's post hoc test comparing WT vs CD1d for each concentration, D: two-way ANOVA followed by Tukey's post hoc test comparing each CD1d group for each concentration).
(§6) Target cells were then cocultured overnight with Vγ9Vδ2-T cell lines in a 1:1 ratio unless otherwise indicated. Viability was measured using Mitotracker Orange (25-minute incubation at 37° C., M7510) and To-pro-3 (10-minute incubation at room temperature; T3605, both Thermo Fisher Scientific).

[5] = tested on: wildtype CD1d-negative MM.1s cells; experiment: Cytotoxicity assay with Vγ9Vδ2-T cell lines, wildtype MM.1s; assay type: cell-based, human; details: overnight coculture with Vγ9Vδ2-T cells
Experimental: as §5, §6

primary CLL cells = experiment: Cytotoxicity assay with Vγ9Vδ2-T cell lines, primary CLL cells; assay type: cell-based
Experimental: as §5, §6
(§7) If indicated, cells were cultured with the indicated concentrations of all-trans retinoic acid (ATRA; R2625, Sigma-Aldrich) for 48 hours unless otherwise indicated. ATRA was washed away prior to cytotoxicity assays.

Jeko-1 cells [6] = experiment: Cytotoxicity assay with Vγ9Vδ2-T cell lines, Jeko-1 target cells; assay type: cell-based, human
Experimental: as §6, §3, §7
If indicated, target cells were pre-incubated with 5 μg/mL anti-CD1d mAb (clone 51.1, 350304, Biolegend, San Diego, CA, USA) and/or 10 μg/mL anti-CD277 mAb (clone 103.2, Creative Biolabs, Shirley, NY, USA) for 10 minutes.

CLL cells = experiment: Mixed coculture cytotoxicity (Vγ9Vδ2-T cell: B cell: CLL cell 1:1:1), CLL cells; assay type: cell-based, human; details: 6 hours
Experimental: as §2, §3, §4

[7] = tested on: CLL patient-derived Vγ9Vδ2-T cells; experiment: Activation, cytokine and degranulation assay with autologous CLL patient-derived Vγ9Vδ2-T cells; assay type: cell-based, human
Excerpt: as §1

autologous CLL cells = experiment: Cytotoxicity assay with patient-derived Vγ9Vδ2-T cells against autologous CLL cells; assay type: cell-based, human; details: 10 nM; CD3:PBMC 5:1 or 20:1
Excerpt: as §1
For cytotoxicity assays performed with patient-derived Vγ9Vδ2-T cells, CD3^+ cells were enriched from patient PBMC by magnetic bead selection (130-050-101, Miltenyi Biotec; ≥90% purity). […] Viable cells were then quantified by fluorescence-labeled antibodies and viability dyes in combination with counting beads (01-1234-42, Thermo Fisher Scientific).

Jeko-1 cells [8] = experiment: Viability of Jeko-1 cells after ATRA treatment; assay type: cell-based, human; details: 100 nM ATRA, 48 hours
Experimental: (§8) (A) CD1d expression on Jeko-1 cells after 48 hours of ATRA treatment. (B) Time-curve of CD1d expression upon ATRA treatment (n=3). (C) Viability of Jeko-1 cells after 48 hours of treatment with 100 nM ATRA (n=4). (D) Lysis of Jeko-1 cells after pretreatment with ATRA. […] (E) CD1d expression on primary CLL cells after 48 hours of different concentrations of ATRA or medium control treatment (n=17). (F) Lysis of CLL cells after pretreatment with ATRA. […] Specific lysis is calculated by correcting for background cell death in condition without Vγ9Vδ2-T cells. Data represent mean and SD. *P<0.05, ***P<0.001, ****P<0.0001. (C: paired t-test; D, F: two-way ANOVA followed by Sidak's post hoc test comparing control vs ATRA-treated for each concentration; E: Friedman test followed by Dunnett's post hoc test compared to medium control).
as §7

[9] = tested on: CD1d expression on primary CLL cells; experiment: CD1d expression on primary CLL cells after ATRA treatment; assay type: cell-based, human; details: for Increase of CD1d levels: primary CLL cells, 48 hours
Experimental: as §8
(§9) Cells were stained with antibodies and viability dyes (Table 4) and measured on an LSR Fortessa or FACS Canto cytometer (BD Biosciences, Franklin Lakes, NJ, USA). Samples were analyzed with Flowjo MacV10. Cytofix/Cytoperm reagent was used for detection of intracellular cytokines (BD Biosciences). Relative CD1d expression is defined as geometric MFI (CD1d stained)—geometric MFI (fluorescence minus one).
as §7

[10] = tested on: CD1d expression on Jeko-1 cells; experiment: CD1d expression on Jeko-1 cells after ATRA treatment; assay type: cell-based, human; details: 48 hours
Experimental: as §8, §9
If indicated, cells were cultured with the indicated concentrations of all-trans retinoic acid (ATRA; R2625, Sigma-Aldrich) for 48 hours unless otherwise indicated. […]

complete Vγ9Vδ2 TCR = target: T1, complete Vγ9Vδ2 TCR (Homo sapiens, UniProt A0JD36+Q99603, T7A); details: Mean Fluorescence Index class; cited from earlier work
T1 construct: host or cells: γδ T-cells expressing the complete Vγ9Vδ2 TCR

Vγ9 chain = target: T2, Vγ9 chain (Homo sapiens, UniProt Q99603, T7A); details: Mean Fluorescence Index class; γδ T-cells expressing Vγ9 chain paired with non Vδ2 chain; cited from earlier work
T2 construct: host or cells: γδ T-cells expressing a Vγ9 chain paired with a non-Vδ2 chain

Vγ9Vδ2-T cells [11] = details: previous work; cited from earlier work
[12] = tested on: γδ T-cells not expressing any of the Vγ9Vδ2 TCR chains; details: Mean Fluorescence Index class; cells not expressing any Vγ9Vδ2 TCR chain; cited from earlier work
Vδ2 chain = target: T3, Vδ2 chain (Homo sapiens, UniProt A0JD36); details: Mean Fluorescence Index class; γδ T-cells expressing Vδ2 chain paired with non Vγ9 chain; cited from earlier work
T3 construct: host or cells: γδ T-cells expressing a Vδ2 chain paired with a non-Vγ9 chain

[13] = 10 pM 1D7-5C8, with ABP (50 μM pamidronate pretreatment)
[14] = 100 nM, overnight coculture with Vγ9Vδ2-T cells 1:1

T1 sequence (Q99603 with tags, fused parts or gaps T7A limits assumed): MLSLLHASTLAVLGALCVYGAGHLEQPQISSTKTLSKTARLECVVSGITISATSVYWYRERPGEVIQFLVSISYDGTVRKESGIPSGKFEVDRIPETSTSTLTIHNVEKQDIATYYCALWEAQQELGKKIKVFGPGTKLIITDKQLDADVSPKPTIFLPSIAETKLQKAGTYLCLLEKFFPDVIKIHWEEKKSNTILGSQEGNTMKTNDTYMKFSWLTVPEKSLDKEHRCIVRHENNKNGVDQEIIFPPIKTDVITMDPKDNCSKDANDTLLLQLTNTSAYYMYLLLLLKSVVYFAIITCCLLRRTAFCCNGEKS
T1 sequence (A0JD36 with tags, fused parts or gaps, stated change not applied): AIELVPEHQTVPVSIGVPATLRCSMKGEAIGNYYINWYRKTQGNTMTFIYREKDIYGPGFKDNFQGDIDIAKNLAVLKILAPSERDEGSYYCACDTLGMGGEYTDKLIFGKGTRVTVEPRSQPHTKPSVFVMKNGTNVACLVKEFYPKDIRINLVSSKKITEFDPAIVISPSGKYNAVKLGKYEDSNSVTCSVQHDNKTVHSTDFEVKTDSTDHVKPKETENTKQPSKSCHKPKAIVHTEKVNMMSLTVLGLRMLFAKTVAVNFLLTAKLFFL
T1 sequence (P07766 23-207 partner): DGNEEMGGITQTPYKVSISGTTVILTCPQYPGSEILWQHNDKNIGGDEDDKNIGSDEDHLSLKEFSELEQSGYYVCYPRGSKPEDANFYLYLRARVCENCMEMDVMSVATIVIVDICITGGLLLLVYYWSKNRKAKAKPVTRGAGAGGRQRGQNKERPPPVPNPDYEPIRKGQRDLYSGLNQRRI
T1 sequence (P09693 23-182 partner): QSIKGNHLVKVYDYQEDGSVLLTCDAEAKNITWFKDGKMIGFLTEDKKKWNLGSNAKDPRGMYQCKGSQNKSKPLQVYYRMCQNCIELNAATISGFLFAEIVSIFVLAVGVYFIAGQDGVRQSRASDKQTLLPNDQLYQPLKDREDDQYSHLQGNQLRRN
T1 sequence (P04234 22-171 partner): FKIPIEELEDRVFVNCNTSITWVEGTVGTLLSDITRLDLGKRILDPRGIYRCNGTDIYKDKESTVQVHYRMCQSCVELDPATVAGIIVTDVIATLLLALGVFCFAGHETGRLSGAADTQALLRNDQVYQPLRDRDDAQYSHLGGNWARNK
T1 sequence (P20963 22-164 partner): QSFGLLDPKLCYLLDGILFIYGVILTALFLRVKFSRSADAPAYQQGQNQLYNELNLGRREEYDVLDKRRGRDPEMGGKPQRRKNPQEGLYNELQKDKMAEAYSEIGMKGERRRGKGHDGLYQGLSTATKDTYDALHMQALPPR
T2 sequence (Q99603 with tags, fused parts or gaps T7A limits assumed): as the sequence (Q99603 with tags, fused parts or gaps T7A limits assumed) above
T2 sequence (P07766 23-207 partner): as the sequence (P07766 23-207 partner) above
T2 sequence (P09693 23-182 partner): as the sequence (P09693 23-182 partner) above
T2 sequence (P04234 22-171 partner): as the sequence (P04234 22-171 partner) above
T2 sequence (P20963 22-164 partner): as the sequence (P20963 22-164 partner) above
T3 sequence (A0JD36 with tags, fused parts or gaps): as the sequence (A0JD36 with tags, fused parts or gaps, stated change not applied) above
T3 sequence (P07766 23-207 partner): as the sequence (P07766 23-207 partner) above
T3 sequence (P09693 23-182 partner): as the sequence (P09693 23-182 partner) above
T3 sequence (P04234 22-171 partner): as the sequence (P04234 22-171 partner) above
T3 sequence (P20963 22-164 partner): as the sequence (P20963 22-164 partner) above

For “1D7-5C8: CD1d-Vδ2 bispecific VHH: 1D7 (N-terminal) joined to 5C8 (C-terminal) with Gly4Ser-linker, SEQ ID NO: 165”, the “Percentage of Vγ9Vδ2-T cells within the T cell fraction” value ([1]; IL-2 50 IU/mL and 50 nM 1D7-5C8, baseline 1.2%) was 5.6%±4.7, the “Percentage of Vγ9Vδ2-T cells with versus without antibody” value ([1]; IL-2 50 IU/mL, 50 nM 1D7-5C8) was 3.1 fold and the “IFN-γ production and degranulation of Vγ9Vδ2-T cells” value (Vγ9Vδ2-T cells [2]) was “did not produce IFN-γ and hardly degranulated”. For the same molecule, the “Lysis of healthy B cells” value (healthy B cells; 10 pM 1D7-5C8, no ABP) was 4.8%±0.6, the “Lysis of healthy B cells” value (healthy B cells; [13]) was 5.4%±4.5 and the Kd [3] was 0.4 nM. For the same molecule, the “Lysis of CD1d+ MM.1s cells” value [4] was “clearly increased lysis”, the “Lysis of wildtype MM.1s cells” value [5] was “had no effect on lysis of the wildtype cells” and the “Lysis of CD1d high CLL cells” value (primary CLL cells; [14]) was 74.5%±19.1. The “Lysis of CD1d low CLL cells” value (primary CLL cells; [14]) was 49.3%±6.6, the “Lysis of Jeko-1 cells” value (Jeko-1 cells [6]; 10 pM 1D7-5C8 with CD1d-blocking antibody (5 μg/mL)) was 13.7%±1.0 and the “Lysis of Jeko-1 cells” value (Jeko-1 cells [6]; 10 pM 1D7-5C8 with CD1d and CD277 simultaneously blocked) was 9.4%±0.8. The “Lysis of Jeko-1 cells” value (Jeko-1 cells [6]; 10 nM, overnight coculture with Vγ9Vδ2-T cells 1:1) was 75.2%±21.0, the “Decline of 1D7-5C8-induced lysis” value (Jeko-1 cells [6]; CD1d and CD277 simultaneously blocked) was 20.2% and the Target cell lysis (Jeko-1 cells [6]; in the absence of Vγ9Vδ2-T cells) was “did not induce target cell lysis”. The “Decrease of 1D7-5C8-induced lysis” value (Jeko-1 cells [6]; with CD1d-blocking antibody, on average) was 15.9%, the “Lysis of CLL cells” value (CLL cells; 10 pM 1D7-5C8, no ABP) was 19.6%±4.8 and the “Lysis of CLL cells” value (CLL cells; [13]) was 25.1%±5.2. The “Upregulation of activation marker CD25 on patient Vγ9Vδ2-T cells” value ([7]; overnight culture of CLL PBMC, 1D7-5C8 50 nM) was 20.8 fold, the “Cytokine production by patient-derived Vγ9Vδ2-T cells” value ([7]; overnight, 50 nM) was “induced production of IFN-γ and TNF-α” and the “Degranulation of patient-derived Vγ9Vδ2-T cells” value ([7]; overnight, 50 nM) was “triggered Vγ9Vδ2-T cell degranulation”. For the same molecule, the “Lysis of autologous CLL cells by patient-derived Vγ9Vδ2-T cells” value (autologous CLL cells) was “enables autologous tumor lysis at relatively low E:T ratios”.

In the case of CC1=C(/C=C/C(C)=C/C=C/C(C)=C/C(=O)O)C(C)(C)CCC1 [ATRA, all-trans retinoic acid], the “Direct induction of cell death” value (Jeko-1 cells [8]) is reported as “did not induce cell death directly”, the “CD1d relative MFI” value ([9]; primary CLL cells after 100 nM ATRA) is reported as 504.6±366.0 and the “Increase of CD1d levels” value ([9]; 1 nM ATRA) is reported as 2.6 fold. For the same molecule, the “Increase of CD1d levels” value ([9]; 100 nM ATRA, on average) was 3.7 fold, the “Sensitivity of ATRA-pretreated primary CLL cells to 1D7-5C8-mediated cell death” value (primary CLL cells; 100 nM ATRA 48 hours, then Vγ9Vδ2-T cells 1:1 plus 1D7-5C8) was “did sensitize primary CLL cells to bispecific antibody 1D7-5C8-mediated cell death” and the “Sensitivity of ATRA-pretreated Jeko-1 cells to 1D7-5C8-induced cell death” value (Jeko-1 cells [6]; 100 nM ATRA 48 hours, then Vγ9Vδ2-T cells 1:2 plus 1D7-5C8) was “more sensitive to bispecific antibody 1D7-5C8-induced cell death than control Jeko-1 cells”. The “ATRA concentration at which upregulation of CD1d expression was detectable” value [10] was 10 pM.

B1: 5C8: Vγ9Vδ2-specific VHH binding to the Vδ2 chain of the TCR, SEQ ID NO: 149 (protein)
VHH: EVQLVESGGGLVQAGGSLRLSCAASGRPFSNYAMGWFRQAPGKEREFVAAISWSGGSTSYADSVKGRFTISRDNAKNTVYLQMNSPKPEDTAIYYCAAQFSGADYGFGRLGIRGYEYDYWGQGTQVTVSS
modifications: antibody sequence
In the case of B1, the “Binding, Vγ9Vδ2+” value (complete Vγ9Vδ2 TCR) is listed as “++ (“++” indicates an MFI above 20)”, the “Binding, Vγ9+” value (Vγ9 chain) is listed as “− (“−” indicates a Mean Fluorescence Index (MFI) below 1.5)” and the “Inhibition of phosphoantigen-CD277 mediated Vγ9Vδ2-T cell activation” value (Vγ9Vδ2-T cells [11]) is listed as “not effective in inhibiting phosphoantigen-CD277 mediated Vγ9Vδ2-T cell activation”. For the same molecule, the “Binding, Vγ9Vδ2−” value [12] was “− (“−” indicates a Mean Fluorescence Index (MFI) below 1.5)” and the “Binding, Vδ2+” value (Vδ2 chain) was “++ (“++” indicates an MFI above 20)”.
